Species: Rattus norvegicus
Assay: DrugMatrix - Regimen: Daily Repeat
Assay type: toxicity, organism-based, Sprague-Dawley
Parameters: regimen Daily Repeat, gender Male, age 6-8 weeks
Settings: in vivo, po, route oral GAVAGE, vehicle 100 % SALINE; for ABSOLUTE BASOPHIL / ABSOLUTE EOSINOPHIL / ABSOLUTE LYMPHOCYTE / ABSOLUTE MONOCYTE / ABSOLUTE SEGMENTED NEUTROPHIL / BASOPHIL / EOSINOPHIL / ERYTHROCYTE COUNT / HEMATOCRIT / HEMOGLOBIN / LEUKOCYTE COUNT / MEAN CORPUSCULAR HEMOGLOBIN / MEAN CORPUSCULAR HEMOGLOBIN CONCENTRATION / MEAN CORPUSCULAR VOLUME / MONOCYTE / NEUTROPHIL / NUCLEATED RED BLOOD CELLS / PLATELET COUNT: tissue Blood; for ALANINE AMINOTRANSFERASE / ALBUMIN / ALKALINE PHOSPHATASE / ASPARTATE AMINOTRANSFERASE / BLOOD UREA NITROGEN / CARBON DIOXIDE / CHLORIDE / CHOLESTEROL / CREATINE PHOSPHOKINASE / CREATININE / GLUCOSE / LACTATE DEHYDROGENASE / LIPASE / PHOSPHORUS / POTASSIUM / SODIUM / TOTAL BILIRUBIN / TOTAL PROTEIN / URIC ACID: tissue Plasma
[1] = 40 mg/kg, 120 h, dose level Low, time 5 day
[2] = 195 mg/kg, 72 h, dose level High, time 3 day
[3] = 195 mg/kg, 120 h, dose level High, time 5 day

## Oc1ccccc1O [CATECHOL]
[1]
  ABSOLUTE BASOPHIL: 0 CELLS/uL
  ABSOLUTE EOSINOPHIL: 30.67 CELLS/uL
  ABSOLUTE LYMPHOCYTE: 8416.67 CELLS/uL
  ABSOLUTE MONOCYTE: 0 CELLS/uL
  ABSOLUTE SEGMENTED NEUTROPHIL: 952.67 CELLS/uL
  BASOPHIL: 0%
  EOSINOPHIL: 0.33%
  ERYTHROCYTE COUNT: 5.53 x10E6/uL
  HEMATOCRIT: 33.83%
  HEMOGLOBIN: 13.17 G/DL
  LEUKOCYTE COUNT: 9.4 x10E3/uL
  MEAN CORPUSCULAR HEMOGLOBIN: 23.8 pg
  MEAN CORPUSCULAR HEMOGLOBIN CONCENTRATION: 38.93 G/DL
  MEAN CORPUSCULAR VOLUME: 61.13 fL
  MONOCYTE: 0%
  NEUTROPHIL: 10.67%
  NUCLEATED RED BLOOD CELLS: 0 /100WBC
  PLATELET COUNT: 1168.67 x10E3/uL
  ALANINE AMINOTRANSFERASE: 60.67 u/L
  ALBUMIN: 4.17 G/DL
  ALKALINE PHOSPHATASE: 318.33 u/L
  ASPARTATE AMINOTRANSFERASE: 89.67 u/L
  BLOOD UREA NITROGEN: 16 mg/dL
  CARBON DIOXIDE: 26 mmol/L
  CHLORIDE: 104.67 MEQ/L
  CHOLESTEROL: 77.67 mg/dL
  CREATINE PHOSPHOKINASE: 225.33 u/L
  CREATININE: 0.14 mg/dL
  GLUCOSE: 162 mg/dL
  LACTATE DEHYDROGENASE: 134.67 u/L
  LIPASE: 9 u/L
  PHOSPHORUS: 10.23 mg/dL
  POTASSIUM: 5.58 MEQ/L
  SODIUM: 152 MEQ/L
  TOTAL BILIRUBIN: 0.2 mg/dL
  TOTAL PROTEIN: 6.03 G/DL
  URIC ACID: 0.77 mg/dL
[2]
  ABSOLUTE BASOPHIL: 0 CELLS/uL
  ABSOLUTE EOSINOPHIL: 0 CELLS/uL
  ABSOLUTE LYMPHOCYTE: 16294.67 CELLS/uL
  ABSOLUTE MONOCYTE: 122.33 CELLS/uL
  ABSOLUTE SEGMENTED NEUTROPHIL: 1316.33 CELLS/uL
  BASOPHIL: 0%
  EOSINOPHIL: 0%
  ERYTHROCYTE COUNT: 5.5 x10E6/uL
  HEMATOCRIT: 33.6%
  HEMOGLOBIN: 13.2 G/DL
  LEUKOCYTE COUNT: 17.73 x10E3/uL
  MEAN CORPUSCULAR HEMOGLOBIN: 24 pg
  MEAN CORPUSCULAR HEMOGLOBIN CONCENTRATION: 39.27 G/DL
  MEAN CORPUSCULAR VOLUME: 61.13 fL
  MONOCYTE: 0.67%
  NEUTROPHIL: 7.33%
  NUCLEATED RED BLOOD CELLS: 0 /100WBC
  PLATELET COUNT: 1440 x10E3/uL
  ALANINE AMINOTRANSFERASE: 50.67 u/L
  ALBUMIN: 4.1 G/DL
  ALKALINE PHOSPHATASE: 278.67 u/L
  ASPARTATE AMINOTRANSFERASE: 78 u/L
  BLOOD UREA NITROGEN: 12.33 mg/dL
  CARBON DIOXIDE: 25 mmol/L
  CHLORIDE: 100.33 MEQ/L
  CHOLESTEROL: 73 mg/dL
  CREATINE PHOSPHOKINASE: 460.33 u/L
  CREATININE: 0.2 mg/dL
  GLUCOSE: 161.33 mg/dL
  LACTATE DEHYDROGENASE: 133.67 u/L
  LIPASE: 10.67 u/L
  PHOSPHORUS: 11.7 mg/dL
  POTASSIUM: 6.15 MEQ/L
  SODIUM: 140.17 MEQ/L
  TOTAL BILIRUBIN: 0.17 mg/dL
  TOTAL PROTEIN: 5.9 G/DL
  URIC ACID: 1.73 mg/dL
[3]
  ABSOLUTE BASOPHIL: 0 CELLS/uL
  ABSOLUTE EOSINOPHIL: 0 CELLS/uL
  ABSOLUTE LYMPHOCYTE: 12717.67 CELLS/uL
  ABSOLUTE MONOCYTE: 34 CELLS/uL
  ABSOLUTE SEGMENTED NEUTROPHIL: 981.67 CELLS/uL
  BASOPHIL: 0%
  EOSINOPHIL: 0%
  ERYTHROCYTE COUNT: 5.35 x10E6/uL
  HEMATOCRIT: 33.67%
  HEMOGLOBIN: 13.33 G/DL
  LEUKOCYTE COUNT: 13.73 x10E3/uL
  MEAN CORPUSCULAR HEMOGLOBIN: 24.93 pg
  MEAN CORPUSCULAR HEMOGLOBIN CONCENTRATION: 39.6 G/DL
  MEAN CORPUSCULAR VOLUME: 62.9 fL
  MONOCYTE: 0.33%
  NEUTROPHIL: 7%
  NUCLEATED RED BLOOD CELLS: 0 /100WBC
  PLATELET COUNT: 1267.33 x10E3/uL
  ALANINE AMINOTRANSFERASE: 63.67 u/L
  ALBUMIN: 4.47 G/DL
  ALKALINE PHOSPHATASE: 326 u/L
  ASPARTATE AMINOTRANSFERASE: 93 u/L
  BLOOD UREA NITROGEN: 15.33 mg/dL
  CARBON DIOXIDE: 27 mmol/L
  CHLORIDE: 102.67 MEQ/L
  CHOLESTEROL: 74.33 mg/dL
  CREATINE PHOSPHOKINASE: 321 u/L
  CREATININE: 0.14 mg/dL
  GLUCOSE: 145.33 mg/dL
  LACTATE DEHYDROGENASE: 130.67 u/L
  LIPASE: 10 u/L
  PHOSPHORUS: 10.1 mg/dL
  POTASSIUM: 6.03 MEQ/L
  SODIUM: 151 MEQ/L
  TOTAL BILIRUBIN: 0.2 mg/dL
  TOTAL PROTEIN: 6.43 G/DL
  URIC ACID: 0.73 mg/dL

— ChEMBL document CHEMBL3885881, “DrugMatrix”
